Experiment [1] concerns the target T1, MAP/microtubule affinity-regulating kinase 4 (Homo sapiens) (UniProt Q96L34).
T1 sequence (whole entry): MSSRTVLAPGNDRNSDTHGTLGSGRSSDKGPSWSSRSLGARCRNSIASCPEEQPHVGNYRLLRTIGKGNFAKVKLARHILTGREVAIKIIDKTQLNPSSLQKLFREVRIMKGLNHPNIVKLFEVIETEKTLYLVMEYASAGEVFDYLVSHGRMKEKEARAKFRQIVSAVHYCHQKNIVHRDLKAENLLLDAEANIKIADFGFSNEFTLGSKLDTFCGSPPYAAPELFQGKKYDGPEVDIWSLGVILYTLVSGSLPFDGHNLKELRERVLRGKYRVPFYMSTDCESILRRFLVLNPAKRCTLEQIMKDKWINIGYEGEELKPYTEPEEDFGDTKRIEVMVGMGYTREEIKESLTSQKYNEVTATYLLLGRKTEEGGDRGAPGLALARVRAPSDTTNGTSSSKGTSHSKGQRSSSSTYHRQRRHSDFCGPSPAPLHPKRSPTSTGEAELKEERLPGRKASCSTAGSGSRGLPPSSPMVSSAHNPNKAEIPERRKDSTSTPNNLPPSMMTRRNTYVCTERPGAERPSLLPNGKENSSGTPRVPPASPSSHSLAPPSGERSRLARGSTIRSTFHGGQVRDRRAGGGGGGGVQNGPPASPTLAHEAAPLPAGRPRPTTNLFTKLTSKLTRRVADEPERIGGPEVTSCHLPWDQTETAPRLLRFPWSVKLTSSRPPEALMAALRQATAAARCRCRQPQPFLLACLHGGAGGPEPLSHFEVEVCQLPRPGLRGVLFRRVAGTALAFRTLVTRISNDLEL
Description: Selectivity interaction (Kinase panel (Z-LYTE Assay)) EUB0001632a MARK4. The following applies: at 10 µM.

Experiment [2] deals with T2, Dual specificity tyrosine-phosphorylation-regulated kinase 2 (Homo sapiens) (UniProt Q92630).
T2 sequence (whole entry): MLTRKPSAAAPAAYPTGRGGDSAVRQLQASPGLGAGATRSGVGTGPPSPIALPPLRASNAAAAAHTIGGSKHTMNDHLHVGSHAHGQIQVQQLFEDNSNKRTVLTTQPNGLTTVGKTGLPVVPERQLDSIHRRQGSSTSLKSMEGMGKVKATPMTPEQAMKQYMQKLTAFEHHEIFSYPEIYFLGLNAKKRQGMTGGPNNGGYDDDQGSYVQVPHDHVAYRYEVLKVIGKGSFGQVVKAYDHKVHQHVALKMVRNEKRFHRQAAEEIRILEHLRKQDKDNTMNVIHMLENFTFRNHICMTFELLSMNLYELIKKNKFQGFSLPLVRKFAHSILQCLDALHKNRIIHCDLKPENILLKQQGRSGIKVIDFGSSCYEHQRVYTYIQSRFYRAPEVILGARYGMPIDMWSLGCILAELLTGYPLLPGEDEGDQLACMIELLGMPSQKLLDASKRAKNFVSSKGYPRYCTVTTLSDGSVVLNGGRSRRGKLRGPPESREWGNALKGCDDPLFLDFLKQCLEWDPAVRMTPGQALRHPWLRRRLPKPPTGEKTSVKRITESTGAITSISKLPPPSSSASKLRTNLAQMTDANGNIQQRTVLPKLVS
Description: Selectivity interaction (KinomeScan (DiscoverX)) EUB0001079a DYRK2. The note with it: at 1 µM.

For experiment [3], the target named is Glycogen synthase kinase-3 beta (Homo sapiens, UniProt P49841). Description: Selectivity interaction (KinomeScan (DiscoverX)) EUB0001619a GSK3B. The note with it: at 1 µM.
Sequence of Glycogen synthase kinase-3 beta (P49841 whole entry, looked up): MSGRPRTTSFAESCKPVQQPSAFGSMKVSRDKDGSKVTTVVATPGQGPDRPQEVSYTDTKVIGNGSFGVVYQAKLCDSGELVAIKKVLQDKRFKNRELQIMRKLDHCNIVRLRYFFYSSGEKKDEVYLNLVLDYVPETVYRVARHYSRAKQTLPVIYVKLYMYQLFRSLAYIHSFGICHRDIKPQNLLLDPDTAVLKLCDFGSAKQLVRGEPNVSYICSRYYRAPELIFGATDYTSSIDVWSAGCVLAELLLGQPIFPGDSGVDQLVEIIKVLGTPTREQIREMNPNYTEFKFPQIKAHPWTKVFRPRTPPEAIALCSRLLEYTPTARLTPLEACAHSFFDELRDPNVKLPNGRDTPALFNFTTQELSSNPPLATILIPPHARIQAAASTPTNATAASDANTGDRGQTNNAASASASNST
Experiment [4] addresses Serine/threonine-protein kinase Nek4 (Homo sapiens) (UniProt P51957). Description: Selectivity interaction (KinomeScan (DiscoverX)) EUB0001049a NEK4. The note with it: at 1 µM.
The target of experiment [5] is T3, Rhodopsin kinase GRK7 (Homo sapiens) (UniProt Q8WTQ7).
T3 sequence (whole entry): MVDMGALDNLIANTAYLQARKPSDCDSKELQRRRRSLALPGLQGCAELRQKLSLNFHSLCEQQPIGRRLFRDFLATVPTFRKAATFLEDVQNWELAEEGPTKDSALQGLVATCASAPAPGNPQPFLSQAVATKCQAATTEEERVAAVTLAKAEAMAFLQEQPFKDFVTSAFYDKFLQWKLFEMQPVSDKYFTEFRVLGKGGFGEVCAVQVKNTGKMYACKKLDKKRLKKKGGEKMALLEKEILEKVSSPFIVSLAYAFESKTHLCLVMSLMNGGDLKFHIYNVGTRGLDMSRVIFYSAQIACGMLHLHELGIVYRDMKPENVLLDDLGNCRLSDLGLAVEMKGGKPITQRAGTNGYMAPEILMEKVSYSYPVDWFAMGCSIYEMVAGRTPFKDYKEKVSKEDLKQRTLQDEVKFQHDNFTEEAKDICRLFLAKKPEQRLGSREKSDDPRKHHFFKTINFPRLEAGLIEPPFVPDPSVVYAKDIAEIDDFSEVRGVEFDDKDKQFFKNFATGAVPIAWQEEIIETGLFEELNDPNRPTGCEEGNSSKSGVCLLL
As to the kind of experiment: Selectivity interaction (KinomeScan (DiscoverX)) EUB0000695a GRK7. The note with it: at 100 nM.

In experiment [6] the target is Serine/threonine-protein kinase 32A (Homo sapiens) (UniProt Q8WU08). Description: Selectivity interaction (KinomeScan (DiscoverX)) EUB0000695a STK32A. The note with it: at 100 nM.
Sequence of Serine/threonine-protein kinase 32A (Homo sapiens) (Q8WU08 whole entry): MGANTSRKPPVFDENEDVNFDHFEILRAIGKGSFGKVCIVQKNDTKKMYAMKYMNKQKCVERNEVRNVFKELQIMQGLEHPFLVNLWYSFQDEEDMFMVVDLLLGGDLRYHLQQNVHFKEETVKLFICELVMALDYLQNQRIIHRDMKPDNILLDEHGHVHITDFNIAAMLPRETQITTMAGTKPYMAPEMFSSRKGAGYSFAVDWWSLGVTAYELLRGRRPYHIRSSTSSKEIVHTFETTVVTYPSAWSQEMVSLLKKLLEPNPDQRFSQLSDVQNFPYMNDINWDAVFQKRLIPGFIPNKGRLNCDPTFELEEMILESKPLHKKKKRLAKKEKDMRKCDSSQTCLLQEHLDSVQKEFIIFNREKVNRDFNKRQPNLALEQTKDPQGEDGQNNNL
The target of experiment [7] is T4, Activin receptor type-1B (Homo sapiens) (UniProt P36896).
T4 sequence (whole entry): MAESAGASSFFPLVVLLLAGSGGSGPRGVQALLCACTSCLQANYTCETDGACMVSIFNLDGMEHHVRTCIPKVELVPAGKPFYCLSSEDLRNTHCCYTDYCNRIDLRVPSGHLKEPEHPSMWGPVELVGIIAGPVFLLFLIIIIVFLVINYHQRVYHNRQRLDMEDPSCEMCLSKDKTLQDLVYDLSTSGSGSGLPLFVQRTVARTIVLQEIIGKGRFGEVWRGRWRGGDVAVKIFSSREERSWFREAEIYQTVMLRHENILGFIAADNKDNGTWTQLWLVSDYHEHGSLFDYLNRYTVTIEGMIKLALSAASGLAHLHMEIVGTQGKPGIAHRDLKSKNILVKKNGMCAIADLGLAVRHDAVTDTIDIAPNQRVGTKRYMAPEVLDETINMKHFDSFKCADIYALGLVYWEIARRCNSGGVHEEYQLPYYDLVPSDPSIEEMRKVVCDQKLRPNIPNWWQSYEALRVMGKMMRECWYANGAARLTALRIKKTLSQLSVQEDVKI
Description: Selectivity interaction (ProQinase) EUB0000171b ACVR1B.

The target in experiment [8] is Serine/threonine-protein kinase pim-2 (Homo sapiens, UniProt Q9P1W9). Description: Selectivity interaction (ProQinase) EUB0000171b PIM2.
Sequence of Serine/threonine-protein kinase pim-2 (Q9P1W9 whole entry, looked up): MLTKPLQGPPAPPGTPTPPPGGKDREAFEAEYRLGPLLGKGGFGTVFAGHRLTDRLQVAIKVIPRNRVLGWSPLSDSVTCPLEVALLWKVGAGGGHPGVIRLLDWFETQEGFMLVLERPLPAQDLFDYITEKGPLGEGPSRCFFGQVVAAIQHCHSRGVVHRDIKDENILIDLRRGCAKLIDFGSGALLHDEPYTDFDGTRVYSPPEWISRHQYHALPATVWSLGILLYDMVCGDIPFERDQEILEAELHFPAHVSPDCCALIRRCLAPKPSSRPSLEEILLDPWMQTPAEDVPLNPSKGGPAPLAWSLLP
The target of experiment [9] is Mitogen-activated protein kinase kinase kinase 9 (Homo sapiens) (UniProt P80192). As to the kind of experiment: Selectivity interaction (KinomeScan (DiscoverX)) EUB0000092b MAP3K9. The note with it: at 10 µM.
Sequence of Mitogen-activated protein kinase kinase kinase 9 (Homo sapiens) (P80192 whole entry, looked up): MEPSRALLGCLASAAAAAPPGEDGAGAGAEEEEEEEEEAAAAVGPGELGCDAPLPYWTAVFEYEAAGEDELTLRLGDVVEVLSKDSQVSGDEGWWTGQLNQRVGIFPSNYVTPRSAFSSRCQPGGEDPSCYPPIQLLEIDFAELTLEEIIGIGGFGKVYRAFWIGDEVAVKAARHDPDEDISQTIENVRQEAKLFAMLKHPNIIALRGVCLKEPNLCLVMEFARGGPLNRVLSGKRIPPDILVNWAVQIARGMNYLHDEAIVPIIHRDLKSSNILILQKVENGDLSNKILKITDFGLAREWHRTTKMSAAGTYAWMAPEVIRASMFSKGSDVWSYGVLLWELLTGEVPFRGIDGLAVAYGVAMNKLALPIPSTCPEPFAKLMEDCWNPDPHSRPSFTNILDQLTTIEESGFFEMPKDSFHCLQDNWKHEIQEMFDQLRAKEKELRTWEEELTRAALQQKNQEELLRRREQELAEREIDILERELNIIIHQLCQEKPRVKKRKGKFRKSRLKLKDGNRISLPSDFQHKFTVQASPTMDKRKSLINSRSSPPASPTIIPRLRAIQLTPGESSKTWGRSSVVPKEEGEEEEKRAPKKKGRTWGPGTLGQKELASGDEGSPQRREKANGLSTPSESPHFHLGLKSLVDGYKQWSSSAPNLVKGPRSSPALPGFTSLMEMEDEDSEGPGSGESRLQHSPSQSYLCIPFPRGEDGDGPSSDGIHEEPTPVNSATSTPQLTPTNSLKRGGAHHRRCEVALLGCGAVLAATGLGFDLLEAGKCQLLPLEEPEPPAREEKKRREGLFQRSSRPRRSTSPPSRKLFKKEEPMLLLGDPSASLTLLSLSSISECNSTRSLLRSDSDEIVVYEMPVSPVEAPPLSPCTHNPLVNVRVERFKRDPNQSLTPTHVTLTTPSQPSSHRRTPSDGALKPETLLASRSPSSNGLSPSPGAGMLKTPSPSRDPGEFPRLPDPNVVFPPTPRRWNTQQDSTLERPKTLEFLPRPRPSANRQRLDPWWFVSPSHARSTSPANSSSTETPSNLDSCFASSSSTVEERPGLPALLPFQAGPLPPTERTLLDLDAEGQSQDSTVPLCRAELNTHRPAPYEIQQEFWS

Structures are written as SMILES.

Sequence of Serine/threonine-protein kinase Nek4 (Homo sapiens) (P51957 whole entry, looked up): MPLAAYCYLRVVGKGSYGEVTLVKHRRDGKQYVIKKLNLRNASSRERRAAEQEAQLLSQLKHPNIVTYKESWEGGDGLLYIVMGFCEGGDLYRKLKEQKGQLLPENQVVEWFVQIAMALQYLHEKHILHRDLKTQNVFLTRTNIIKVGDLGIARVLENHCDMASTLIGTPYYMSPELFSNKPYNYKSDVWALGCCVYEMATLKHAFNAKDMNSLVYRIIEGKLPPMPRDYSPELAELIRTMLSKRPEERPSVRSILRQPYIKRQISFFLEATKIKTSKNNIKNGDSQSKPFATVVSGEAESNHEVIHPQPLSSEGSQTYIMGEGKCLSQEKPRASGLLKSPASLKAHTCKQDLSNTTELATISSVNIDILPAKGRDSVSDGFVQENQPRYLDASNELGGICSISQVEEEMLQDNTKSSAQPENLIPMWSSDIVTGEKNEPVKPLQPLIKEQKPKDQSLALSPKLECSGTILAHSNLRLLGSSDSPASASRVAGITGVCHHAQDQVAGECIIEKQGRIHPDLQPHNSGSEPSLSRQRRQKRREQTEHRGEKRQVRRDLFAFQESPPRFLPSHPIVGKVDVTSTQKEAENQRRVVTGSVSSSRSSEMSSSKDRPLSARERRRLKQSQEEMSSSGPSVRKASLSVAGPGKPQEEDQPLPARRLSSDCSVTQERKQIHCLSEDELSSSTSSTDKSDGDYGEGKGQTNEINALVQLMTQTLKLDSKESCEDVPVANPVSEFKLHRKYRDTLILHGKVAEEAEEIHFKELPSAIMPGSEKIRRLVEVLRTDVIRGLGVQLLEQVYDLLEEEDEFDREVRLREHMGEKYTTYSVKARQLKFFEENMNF

With `Cn1cc(-n2cnc3c(NCc4nc5cc(Cl)c(Cl)cc5[nH]4)nc(N4CCOCC4)nc32)cn1`, the % of control in experiment [1] is 18.7%.
In experiment [2], `Nc1cnc(N2CCc3cc(S(=O)(=O)Nc4c(F)cc(Cl)cc4F)cc(N4CCCC4=O)c32)nc1` [TP-020n] gave a % of control of 89%.
Take `N#Cc1cccc(-c2c[nH]c3ncnc(N4CCOCC4)c23)c1`: the % of control in experiment [3] amounted to 94%.
`COc1cc(Nc2nc(C)cc(-c3cnn4nc(OC)ccc34)n2)cc(C(F)(F)F)c1` registered a % of control in experiment [4] of 90%.
As for `Cc1cc(F)c(C(=O)Nc2cccc(-c3nncn3C(C)C)n2)cc1-n1cnc(C2CC2)c1`, the % of control in experiment [5] amounted to 97%; in experiment [6] it was 100%.
On to `C=CC(=O)Nc1cccc(C(=O)Nc2ccc(Nc3cc(-c4[nH]c(SC)nc4C)ccn3)cc2)c1`, for which the % of control in experiment [7] (at 1 µM) was 94%; in [7] (at 5 µM), 94%; in [8] (at 1 µM) it was 101%; in [8] (at 5 µM) it was 69%.
As for `CCC(=O)N1CCN(c2ccc(-n3c(=O)ccc4cnc5ccc(-c6cnc7ccccc7c6)cc5c43)cc2C(F)(F)F)CC1`, the % of control in experiment [9] worked out at 84%.

(Values after ChEMBL document CHEMBL5465560, “Selectivity Literature for EUbOPEN Chemogenomic Library” (2024).)
